Experimental findings from US7312358B2, “Pharmaceutically active sulfanilide derivatives” (Laboratoires Serono SA, priority 2000, dated 2007) are described below.

The target of this experiment is hV1a (Homo sapiens, UniProt P37288). The experiment is described as follows: Inhibition of vasopressin-mediated Ca2+-mobilization by FLIPR (CHO cells expressing hV1a). The experiment is classed as cell-based. Further details: expressed in transfected cells; host or cells: CHO cells. The note with it: fluo-4, AVP 40 nM. The text has this: d) Functional Assay No. 1: Inhibition of Vasopressin-Mediated Ca^2+-mobilization by FLIPR (Fluorescent Imaging Plate Reader)
hV1a, sequence (P37288 whole entry): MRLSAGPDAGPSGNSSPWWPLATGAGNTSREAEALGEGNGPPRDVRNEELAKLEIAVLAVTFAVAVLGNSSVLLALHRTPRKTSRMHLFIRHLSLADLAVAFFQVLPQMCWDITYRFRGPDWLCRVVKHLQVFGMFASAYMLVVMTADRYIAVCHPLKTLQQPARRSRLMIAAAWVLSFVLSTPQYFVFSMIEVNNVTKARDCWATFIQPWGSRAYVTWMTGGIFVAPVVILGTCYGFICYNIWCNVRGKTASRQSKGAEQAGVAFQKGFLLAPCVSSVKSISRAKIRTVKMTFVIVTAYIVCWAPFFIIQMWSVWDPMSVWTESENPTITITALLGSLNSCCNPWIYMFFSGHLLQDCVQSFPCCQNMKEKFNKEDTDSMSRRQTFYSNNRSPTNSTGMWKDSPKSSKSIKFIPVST
FLIPR is a machine for fluorescence imaging using a laser that is capable of illuminating a 96-well plate and a means of simultaneously reading each well thus enabling rapid measurements on a large number of samples.
This assay intends to show the inhibition of the AVP/V1a-R mediated calcium mobilisation—being necessary to cause uterine contractions—by using test compounds of formula (1).
Preparing the plates: FLIPR-plates were pre-coated with PLL (Poly-L-Lysine) 10 μg/ml+0.1% gelatine to attach the CHO cells (expessing hV1a) for 30 min up to 2 days at 37° C. The cells were plated out into 96-well plates (60000 cells/well).
Labelling with fluo-4: 50 μg fluo-4 (fluorescent marker) were dissolved in 20 μl pluronic acid (20% in DMSO). The dissolved fluo-4 was then diluted in 10 ml DMEM (Dubecco's […] Medium-F12 medium without FCS (Fetal Calf Serum). The medium was removed from the plates, followed by one wash with DMEM-F12 medium. Now, 100 μl of the DMEM-F12 medium containing fluo-4 were added and the cells incubated for 1-1.5 h (CHO-cells). The cells now contain the fluorescent marker.
Buffer: 145 mM NaCl, 5 mM KCl, 1 mM MgCl2, 10 mM Hepes, 10 mM Glucose, EGTA (Ethylene-bis oxyethylene nitrilo tetraacetic acid). Adjust to pH 7.4.
Performance of the assay: A minimum of 80 μl/well of antagonists (5×) in the above buffer (1×) were prepared (96-well plates). The antagonists were added to the well-plates at different concentrations (30 μM, 10 μM, 1 μM, 300 nM, 100 nM, 10 nM, 1 nM, 100 pM, 10 pM).
AVP is added at a concentration of 40 nM.
The fluorescent marker being sensitive to the amount of Ca^2+ mobilized within the cell may be quantified by the FLIPR machine.
The activities of the sulfanilide derivatives according to formula I were assessed using the above described in vitro biological assay. The values refer to the capacity of the example compounds according to formula I to effectively antagonize AVP-induced intracellular Ca^2+-mobilization mediated by the VIa-receptor.
The IC50 is the concentration that gives 50% inhibition. A lower IC50 goes with higher potency. As to `COc1ccc(N(CC(=O)Nc2ccc(Cl)cc2C)S(=O)(=O)c2ccccc2)cc1` [2-[Benzenesulfonyl-(4-methoxy-phenyl)-amino]-N-(4-chloro-2-methyl-phenyl)-acetamide], 90 nM corresponded to half-maximal inhibition (IC50). Then `COc1ccc(/C=N/NC(=O)CN(c2cccc(Br)c2)S(=O)(=O)c2ccccc2)cc1OC` [N-(3-Bromo-phenyl)-N-(3,4-dimethoxy-benzylidene-hydrazinocarbonylmethyl)-benzenesulfonamide], with 440 nM; and `COc1ccc(/C=N/NC(=O)CN(c2cccc(Cl)c2)S(=O)(=O)c2ccccc2)cc1OC` [N-(3-Chloro-phenyl)-N-(3,4-dimethoxy-benzylidene-hydrazinocarbonylmethyl)-benzenesulfonamide], with 550 nM; and `C/C(=N/NC(=O)CN(c1cccc(Cl)c1)S(=O)(=O)c1ccccc1)c1ccccc1O` [N-(3-Chloro-phenyl)-N-[1-(2-hydroxy-phenyl)-ethylidene-hydrazinocarbonylmethyl]-benzenesulfonamide], with 370 nM.
